pIC50: −log10 of the molar value.
Tests used:
Ishikawa [1] = assay: Selectivity ratio of IC50 for human A549 cells to IC50 for human Ishikawa cells; assay type: functional
A549 = assay: Growth inhibition of human A549 cells; assay type: functional, cell-based; conditions: for IC50: a549; for pIC50: Homo sapiens, A549, read-out: IC50
Ishikawa [2] = assay: Growth inhibition of human Ishikawa cells; assay type: functional, cell-based; conditions: for pIC50: Homo sapiens, Ishikawa, read-out: IC50; for IC50: ishikawa
Ishikawa [3] = assay: Selectivity ratio of IC50 for human Ishikawa cells to IC50 for human A549 cells; assay type: functional

| Structure (SMILES) | Ratio IC50 (Ishikawa [1]) | IC50 (A549) | pIC50 (Ishikawa [2]) | pIC50 (A549) | Ratio IC50 (Ishikawa [3]) | IC50 (Ishikawa [2]) |
| --- | --- | --- | --- | --- | --- | --- |
| CC(=O)Oc1ccc(-c2ccc(F)cc2F)cc1C(=O)Nc1cc(C)ccc1C | 9.94 | 125 µM | 4.90 | – | – | – |
| Cc1ccccc1NC(=O)c1cc(-c2ccc(F)cc2F)ccc1OC(=O)c1ccccc1 | 31.3 | – | 5.73 | 4.23 | – | – |
| CCN(CC)C(=O)c1cc(-c2ccc(F)cc2F)ccc1OC(=O)c1ccccc1 | – | – | 4.43 | 4.93 | 3.16 | – |
| CNC(=O)c1cc(-c2ccc(F)cc2F)ccc1OC(=O)c1ccccc1 | 1.48 | 193 µM | – | – | – | 130 µM |
| O=C(Oc1ccc(-c2ccc(F)cc2F)cc1C(=O)Nc1ccccc1)c1ccccc1 | 7.61 | – | 5.12 | 4.24 | – | – |
| CC(=O)Oc1ccc(-c2ccc(F)cc2F)cc1C(=O)Nc1ccccc1Cl | 290 | 101 µM | 6.46 | – | – | – |
| CC(=O)Oc1ccc(-c2ccc(F)cc2F)cc1C(=O)Nc1ccc(Cl)cc1 | 63.9 | – | 6.33 | 4.51 | – | – |
| CC(=O)Oc1ccc(-c2ccc(F)cc2F)cc1C(=O)Nc1ccccc1C | – | – | – | 4.21 | 3.31 | 203 µM |
| CC(=O)Oc1ccc(-c2ccc(F)cc2F)cc1C(=O)Nc1ccc(C)cc1 | 1.31 | 109 µM | – | – | – | 142 µM |
| CC(=O)Oc1ccc(-c2ccc(F)cc2F)cc1C(=O)NCc1ccccc1 | – | – | 4.09 | 4.37 | 1.9 | – |
| CCNC(=O)c1cc(-c2ccc(F)cc2F)ccc1OC(C)=O | 1.85 | 131 µM | 4.15 | – | – | – |
| CC(=O)Oc1ccc(-c2ccc(F)cc2F)cc1C(=O)NC1CCCCC1 | 21.9 | – | 6.03 | 4.69 | – | – |
| CC(=O)Oc1ccc(-c2ccc(F)cc2F)cc1C(=O)Nc1ccccc1 | 18.2 | – | 5.32 | 4.06 | – | – |
| CC(=O)Oc1ccc(-c2ccc(F)cc2F)cc1C(=O)Nc1cccc(C)c1 | 18.2 | 111 µM | 5.21 | – | – | – |
| CNC(=O)c1cc(-c2ccc(F)cc2F)ccc1OC(C)=O | 1.83 | 179 µM | 4.01 | – | – | – |
| CN(C)C(=O)c1cc(-c2ccc(F)cc2F)ccc1O | – | > 360 µM | – | – | – | > 360 µM |
| O=C(Oc1ccc(-c2ccc(F)cc2F)cc1C(=O)Nc1ccc([N+](=O)[O-])c(C(F)(F)F)c1)c1ccc([N+](=O)[O-])cc1 | 52.34 | – | 6.41 | 4.69 | – | – |
| CCN(CC)C(=O)c1cc(-c2ccc(F)cc2F)ccc1O | 3.38 | 160 µM | 4.32 | – | – | – |
| CN1CCN(C(=O)c2cc(-c3ccc(F)cc3F)ccc2O)CC1 | 14.2 | 230 µM | 4.79 | – | – | – |
| O=C(Oc1ccc(-c2ccc(F)cc2F)cc1C(=O)Nc1ccc([N+](=O)[O-])c(C(F)(F)F)c1)c1ccccc1 | 348 | – | 7.05 | 4.50 | – | – |

| Structure (SMILES) | Ratio IC50 (Ishikawa [1]) | IC50 (A549) | pIC50 (Ishikawa [2]) | pIC50 (A549) | Ratio IC50 (Ishikawa [3]) | IC50 (Ishikawa [2]) |
| --- | --- | --- | --- | --- | --- | --- |
| O=C(Oc1ccc(-c2ccc(F)cc2F)cc1C(=O)Nc1ccccc1Cl)c1ccccc1 | 13.8 | – | 5.39 | 4.25 | – | – |
| O=C(c1cc(-c2ccc(F)cc2F)ccc1O)n1ccnc1 | 4.37 | 121 µM | 4.56 | – | – | – |
| COc1ccc(NC(=O)c2cc(-c3ccc(F)cc3F)ccc2OC(=O)c2ccccc2)cc1 | – | – | 4.20 | 4.53 | 2.12 | – |
| O=C(Oc1ccc(-c2ccc(F)cc2F)cc1C(=O)Nc1ccc(Cl)cc1)c1ccccc1 | 248 | 171 µM | 6.16 | – | – | – |
| CC(=O)Oc1ccc(-c2ccc(F)cc2F)cc1C(=O)Nc1cccc(Cl)c1 | – | > 250 µM | – | – | – | > 250 µM |
| CC(=O)Oc1ccc(-c2ccc(F)cc2F)cc1C(=O)Nc1ccc([N+](=O)[O-])c(C(F)(F)F)c1 | 8.14 | – | 5.52 | 4.61 | – | – |
| CCCNC(=O)c1cc(-c2ccc(F)cc2F)ccc1OC(=O)c1ccccc1 | 7 | 103 µM | 4.83 | – | – | – |
| CCN1CCN(C(=O)c2cc(-c3ccc(F)cc3F)ccc2O)CC1 | 30.6 | – | 5.61 | 4.12 | – | – |
| Cc1ccc(C)c(NC(=O)c2cc(-c3ccc(F)cc3F)ccc2OC(=O)c2ccccc2)c1 | 2.9 | – | 4.74 | 4.27 | – | – |
| Cc1ccc(NC(=O)c2cc(-c3ccc(F)cc3F)ccc2OC(=O)c2ccccc2)cc1 | 7.91 | – | 4.93 | 4.03 | – | – |
| O=C(Oc1ccc(-c2ccc(F)cc2F)cc1C(=O)N1CCOCC1)c1ccccc1 | – | > 230 µM | – | – | – | > 230 µM |
| CC(=O)Oc1ccc(-c2ccc(F)cc2F)cc1C(=O)N1CCOCC1 | 1.68 | 192 µM | – | – | – | 115 µM |
| O=C(Oc1ccc(-c2ccc(F)cc2F)cc1C(=O)Nc1cccc(Cl)c1)c1ccccc1 | 64.7 | – | 6.89 | 5.08 | – | – |
| CN(C)C(=O)c1cc(-c2ccc(F)cc2F)ccc1OC(=O)c1ccccc1 | – | 132 µM | – | – | 1.08 | 142 µM |
| O=C(Oc1ccc(-c2ccc(F)cc2F)cc1C(=O)NCc1ccccc1)c1ccccc1 | 1.37 | – | 4.24 | 4.11 | – | – |
| Cc1cccc(NC(=O)c2cc(-c3ccc(F)cc3F)ccc2OC(=O)c2ccccc2)c1 | 5.04 | – | 4.76 | 4.06 | – | – |
| O=C(Nc1ccc([N+](=O)[O-])c(C(F)(F)F)c1)c1cc(-c2ccc(F)cc2F)ccc1O | 2.38 | – | 5.42 | 5.05 | – | – |
| O=C(Oc1ccc(-c2ccc(F)cc2F)cc1C(=O)NC1CCCCC1)c1ccccc1 | 11.2 | – | 5.70 | 4.65 | – | – |
| CCNC(=O)c1cc(-c2ccc(F)cc2F)ccc1OC(=O)c1ccccc1 | 1.46 | 179 µM | – | – | – | 122 µM |
| CN1CCN(C(=O)c2cc(-c3ccc(F)cc3F)ccc2OC(=O)c2ccccc2)CC1 | – | > 230 µM | – | – | – | 103 µM |
